Results published in ChEMBL document CHEMBL4665709, “Rational Avoidance of Protease Cleavage Sites and Symmetrical End-Tagging Significantly Enhances the Stability and Therapeutic Potential of Antimicrobial Peptides” (J Med Chem, 2020).
In brackets after ≈: the same amount, converted by molar mass. Where a SMILES comes first, the peptide text is derived from it.

Legend:
[1] = system: Salmonella typhimurium; experiment: Antibacterial activity against Salmonella typhimurium 7731 after 18 to 24 hrs by CLSI-based broth microdilution method; format: functional, Salmonella enterica subsp. enterica serovar Typhimurium; conditions: Salmonella enterica, time hrs 18-24
[2] = system: Escherichia coli; experiment: Antibacterial activity against Escherichia coli ATCC 25922 after 18 to 24 hrs in presence of 4.5 mM K+ by CLSI-based broth microdilution method; format: functional; conditions: time hrs 18-24
[3] = Stability of compound at 100 degreeC after 30 to 90 mins; format: physicochemical; conditions: time 30-90 min
[4] = system: Staphylococcus aureus; experiment: Antibacterial activity against Staphylococcus aureus ATCC 29213 after 18 to 24 hrs in presence of 50% human serum by CLSI-based broth microdilution method; format: functional; conditions: time hrs 18-24
[5] = system: Staphylococcus aureus; experiment: Antibacterial activity against Staphylococcus aureus ATCC 29213 after 18 to 24 hrs in presence of 8 uM Zn2+ by CLSI-based broth microdilution method; format: functional; conditions: time hrs 18-24
[6] = Therapeutic index, ratio of MHC for human RBC to geometric mean of peptide MIC for Streptococcus agalactiae H92; format: toxicity; conditions: human red blood cells (RBC), read-out: TI
[7] = Therapeutic index, ratio of MHC for human RBC to geometric mean of peptide MIC for Escherichia coli UB1005; format: toxicity; conditions: human red blood cells (RBC), read-out: TI
[8] = system: Escherichia coli; experiment: Antibacterial activity against Escherichia coli ATCC 25922 after 18 to 24 hrs in presence of 25% human serum by CLSI-based broth microdilution method; format: functional; conditions: time hrs 18-24
[9] = system: Staphylococcus aureus; experiment: Antibacterial activity against Staphylococcus aureus 11011 after 18 to 24 hrs by CLSI-based broth microdilution method; format: functional; conditions: time hrs 18-24
[10] = Hemolytic activity in human RBC assessed as hemolysis at 1 to 128 uM relative to control; format: ADME, cell-based, Erythrocyte; conditions: human red blood cells (RBC), dose 1-128 µM, read-out: Activity
[11] = system: Staphylococcus aureus; experiment: Antibacterial activity against Staphylococcus aureus ATCC 29213 after 18 to 24 hrs in presence of 4.5 mM K+ by CLSI-based broth microdilution method; format: functional; conditions: time hrs 18-24
[12] = system: Streptococcus agalactiae; experiment: Antibacterial activity against Streptococcus agalactiae H92 after 18 to 24 hrs by CLSI-based broth microdilution method; format: functional; conditions: time hrs 18-24
[13] = system: Erythrocyte; experiment: Hemolytic activity in human RBC assessed as hemolysis; format: ADME, cell-based
[14] = system: Escherichia coli; experiment: Antibacterial activity against Escherichia coli ATCC 25922 after 18 to 24 hrs in presence of 6 uM NH4+ by CLSI-based broth microdilution method; format: functional; conditions: time hrs 18-24
[15] = Therapeutic index, ratio of MHC for human RBC to geometric mean of peptide MIC for Staphylococcus aureus ATCC 29213; format: toxicity; conditions: human red blood cells (RBC), read-out: TI
[16] = system: Staphylococcus aureus; experiment: Antibacterial activity against Staphylococcus aureus ATCC 29213 after 18 to 24 hrs in presence of 6 uM NH4+ by CLSI-based broth microdilution method; format: functional; conditions: time hrs 18-24
[17] = system: Escherichia coli; experiment: Antibacterial activity against Escherichia coli ATCC 25922 after 18 to 24 hrs in presence of 150 mM Na+ by CLSI-based broth microdilution method; format: functional; conditions: time hrs 18-24
[18] = system: Escherichia coli; experiment: Antibacterial activity against Escherichia coli ATCC 25922 after 18 to 24 hrs in presence of 1 mM Mg2+ by CLSI-based broth microdilution method; format: functional; conditions: time hrs 18-24
[19] = system: Staphylococcus aureus; experiment: Antibacterial activity against Staphylococcus aureus ATCC 29213 after 18 to 24 hrs by CLSI-based broth microdilution method; format: functional; conditions: time hrs 18-24
[20] = system: Staphylococcus aureus; experiment: Antibacterial activity against Staphylococcus aureus ATCC 29213 after 18 to 24 hrs in presence of 25% human serum by CLSI-based broth microdilution method; format: functional; conditions: time hrs 18-24
[21] = Antibacterial activity against Salmonella pullorum 7913 after 18 to 24 hrs by CLSI-based broth microdilution method; format: functional, Salmonella enterica subsp. enterica serovar Pullorum; conditions: Salmonella enterica, time hrs 18-24
[22] = Therapeutic index, ratio of MHC for human RBC to geometric mean of peptide MIC for Staphylococcus aureus 11011; format: toxicity; conditions: human red blood cells (RBC), read-out: TI
[23] = Therapeutic index, ratio of MHC for human RBC to geometric mean of peptide MIC for Salmonella choleraesuis 503; format: toxicity; conditions: human red blood cells (RBC), read-out: TI
[24] = Cytotoxicity against HEK-293T cells assessed as cell viability at 128 uM by MTT assay relative to control; format: cell-based; conditions: human, read-out: Activity
[25] = system: Escherichia coli; experiment: Antibacterial activity against Escherichia coli ATCC 25922 after 18 to 24 hrs by CLSI-based broth microdilution method; format: functional; conditions: time hrs 18-24
[26] = system: Staphylococcus aureus; experiment: Antibacterial activity against methicillin-resistant Staphylococcus aureus 43300 after 18 to 24 hrs by CLSI-based broth microdilution method; format: functional; conditions: time hrs 18-24
[27] = system: Staphylococcus aureus; experiment: Antibacterial activity against Staphylococcus aureus ATCC 29213 after 18 to 24 hrs in presence of 6 uM Fe3+ by CLSI-based broth microdilution method; format: functional; conditions: time hrs 18-24
[28] = Therapeutic index, ratio of MHC for human RBC to geometric mean of peptide MIC for Staphylococcus epidermidis ATCC 12228; format: toxicity; conditions: human red blood cells (RBC), read-out: TI
[29] = system: Staphylococcus aureus; experiment: Antibacterial activity against Staphylococcus aureus ATCC 29213 after 18 to 24 hrs in presence of 1 mM Mg2+ by CLSI-based broth microdilution method; format: functional; conditions: time hrs 18-24
[30] = Therapeutic index, ratio of MHC for human RBC to geometric mean of peptide MIC for methicillin-resistant Staphylococcus aureus 43300; format: toxicity; conditions: human red blood cells (RBC), read-out: TI
[31] = Therapeutic index, ratio of MHC for human RBC to geometric mean of peptide MIC for Salmonella typhimurium 7731; format: toxicity; conditions: human red blood cells (RBC), read-out: TI
[32] = system: Escherichia coli; experiment: Antibacterial activity against Escherichia coli ATCC 25922 after 18 to 24 hrs in presence of 100% human serum by CLSI-based broth microdilution method; format: functional; conditions: time hrs 18-24
[33] = Therapeutic index, ratio of MHC for human RBC to geometric mean of peptide MIC for Salmonella pullorum 7913; format: toxicity; conditions: human red blood cells (RBC), read-out: TI
[34] = Cytotoxicity against mouse RAW264.7 cells assessed as cell viability at 128 uM by MTT assay relative to control; format: cell-based; conditions: read-out: Activity
[35] = system: Escherichia coli; experiment: Antibacterial activity against Escherichia coli ATCC 25922 after 18 to 24 hrs in presence of 50% human serum by CLSI-based broth microdilution method; format: functional; conditions: time hrs 18-24
[36] = system: Escherichia coli; experiment: Antibacterial activity against Escherichia coli UB1005 after 18 to 24 hrs by CLSI-based broth microdilution method; format: functional; conditions: time hrs 18-24
[37] = system: Enterococcus faecalis; experiment: Antibacterial activity against Enterococcus faecalis ATCC 29212 after 18 to 24 hrs by CLSI-based broth microdilution method; format: functional; conditions: time hrs 18-24
[38] = Therapeutic index, ratio of MHC for human RBC to geometric mean of peptide MIC for Escherichia coli ATCC 25922; format: toxicity; conditions: human red blood cells (RBC), read-out: TI
[39] = system: Salmonella typhimurium; experiment: Antibacterial activity against Salmonella typhimurium 14028 after 18 to 24 hrs by CLSI-based broth microdilution method; format: functional, Salmonella enterica subsp. enterica serovar Typhimurium; conditions: Salmonella enterica, time hrs 18-24
[40] = Therapeutic index, ratio of MHC for human RBC to geometric mean of peptide MIC for Salmonella typhimurium 14028; format: toxicity; conditions: human red blood cells (RBC), read-out: TI
[41] = system: Escherichia coli; experiment: Antibacterial activity against Escherichia coli ATCC 25922 after 18 to 24 hrs in presence of 6 uM Fe3+ by CLSI-based broth microdilution method; format: functional; conditions: time hrs 18-24
[42] = system: Escherichia coli; experiment: Antibacterial activity against Escherichia coli ATCC 25922 after 18 to 24 hrs in presence of 8 uM Zn2+ by CLSI-based broth microdilution method; format: functional; conditions: time hrs 18-24
[43] = system: Staphylococcus aureus; experiment: Antibacterial activity against Staphylococcus aureus ATCC 29213 after 18 to 24 hrs in presence of 100% human serum by CLSI-based broth microdilution method; format: functional; conditions: time hrs 18-24
[44] = system: Salmonella enterica; experiment: Antibacterial activity against Salmonella choleraesuis 503 after 18 to 24 hrs by CLSI-based broth microdilution method; format: functional; conditions: time hrs 18-24
[45] = system: Staphylococcus epidermidis; experiment: Antibacterial activity against Staphylococcus epidermidis ATCC 12228 after 18 to 24 hrs by CLSI-based broth microdilution method; format: functional; conditions: time hrs 18-24
[46] = Therapeutic index, ratio of MHC for human RBC to geometric mean of peptide MIC for Enterococcus faecalis ATCC 29212; format: toxicity; conditions: human red blood cells (RBC), read-out: TI
[47] = system: Staphylococcus aureus; experiment: Antibacterial activity against Staphylococcus aureus ATCC 29213 after 18 to 24 hrs in presence of 150 mM Na+ by CLSI-based broth microdilution method; format: functional; conditions: time hrs 18-24

CC[C@H](C)[C@H](N)C(=O)N[C@H](C(=O)N[C@@H](CS)C(=O)N[C@@H](CCCNC(=N)N)C(=O)N[C@@H](CCCCN)C(=O)N1CCC[C@H]1C(=O)N[C@H](C(=O)N[C@H](C(=O)N[C@@H](CS)C(=O)N[C@@H](CCCNC(=N)N)C(=O)N[C@@H](CCCCN)C(=O)N1CCC[C@H]1C(=O)N[C@H](C(=O)N[C@H](C(=O)N[C@@H](CS)C(=O)N[C@@H](CCCNC(=N)N)C(=O)N[C@@H](CCCCN)C(=O)N1CCC[C@H]1C(=O)N[C@H](C(=O)N[C@H](C(=O)N[C@@H](CS)C(=O)N[C@@H](CCCNC(=N)N)C(=O)N[C@@H](CCCCN)C(=O)N1CCC[C@H]1C(=O)N[C@H](C(=O)N[C@H](C(N)=O)[C@@H](C)CC)[C@@H](C)CC)[C@@H](C)CC)[C@@H](C)CC)[C@@H](C)CC)[C@@H](C)CC)[C@@H](C)CC)[C@@H](C)CC)[C@@H](C)CC (H-IICRKPIICRKPIICRKPIICRKPII-NH2)
MIC [1]: 2 µM (≈ 6.17 µg/mL) | MIC [2]: 2 µM | Stabilty [3]: Stable | MIC [4]: 64 µM | MIC [5]: 32 µM | selectivity ratio [6]: 6.35 | selectivity ratio [7]: 50.8 | MIC [8]: 4 µM | MIC [9]: 16 µM (≈ 49.4 µg/mL) | hemolysis at up to 128 µM [10]: < 5% | MIC [11]: 64 µM | MIC [12]: 16 µM (≈ 49.4 µg/mL) | MHC [13]: > 128 µM | MIC [14]: 2 µM | selectivity ratio [15]: 6.35 | MIC [16]: 32 µM | MIC [17]: 8 µM | MIC [18]: 8 µM | MIC [19]: 32 µM (≈ 98.8 µg/mL) | MIC [20]: 64 µM | MIC [21]: 8 µM (≈ 24.7 µg/mL) | selectivity ratio [22]: 6.35 | selectivity ratio [23]: 50.8 | viability at 128 µM [24]: > 90% | MIC [25]: 2 µM (≈ 6.17 µg/mL) | MIC [26]: 16 µM (≈ 49.4 µg/mL) | MIC [27]: 32 µM | selectivity ratio [28]: 6.35 | MIC [29]: 64 µM | selectivity ratio [30]: 6.35 | selectivity ratio [31]: 50.8 | MIC [32]: 16 µM | selectivity ratio [33]: 50.8 | viability at 128 µM [34]: > 90% | MIC [35]: 4 µM | MIC [36]: 1 µM (≈ 3.09 µg/mL) | MIC [37]: 32 µM (≈ 98.8 µg/mL) | selectivity ratio [38]: 50.8 | MIC [39]: 2 µM (≈ 6.17 µg/mL) | selectivity ratio [40]: 50.8 | MIC [41]: 2 µM | MIC [42]: 2 µM | MIC [43]: 64 µM | MIC [44]: 4 µM (≈ 12.3 µg/mL) | MIC [45]: 16 µM (≈ 49.4 µg/mL) | selectivity ratio [46]: 6.35 | MIC [47]: 64 µM
